# Molecular target: T1, bacteriophage T4 DNA polymerase (Enterobacteria phage T4, UniProt P04415)
# T1 construct: made in house
# T1 sequence (P04415 1-898): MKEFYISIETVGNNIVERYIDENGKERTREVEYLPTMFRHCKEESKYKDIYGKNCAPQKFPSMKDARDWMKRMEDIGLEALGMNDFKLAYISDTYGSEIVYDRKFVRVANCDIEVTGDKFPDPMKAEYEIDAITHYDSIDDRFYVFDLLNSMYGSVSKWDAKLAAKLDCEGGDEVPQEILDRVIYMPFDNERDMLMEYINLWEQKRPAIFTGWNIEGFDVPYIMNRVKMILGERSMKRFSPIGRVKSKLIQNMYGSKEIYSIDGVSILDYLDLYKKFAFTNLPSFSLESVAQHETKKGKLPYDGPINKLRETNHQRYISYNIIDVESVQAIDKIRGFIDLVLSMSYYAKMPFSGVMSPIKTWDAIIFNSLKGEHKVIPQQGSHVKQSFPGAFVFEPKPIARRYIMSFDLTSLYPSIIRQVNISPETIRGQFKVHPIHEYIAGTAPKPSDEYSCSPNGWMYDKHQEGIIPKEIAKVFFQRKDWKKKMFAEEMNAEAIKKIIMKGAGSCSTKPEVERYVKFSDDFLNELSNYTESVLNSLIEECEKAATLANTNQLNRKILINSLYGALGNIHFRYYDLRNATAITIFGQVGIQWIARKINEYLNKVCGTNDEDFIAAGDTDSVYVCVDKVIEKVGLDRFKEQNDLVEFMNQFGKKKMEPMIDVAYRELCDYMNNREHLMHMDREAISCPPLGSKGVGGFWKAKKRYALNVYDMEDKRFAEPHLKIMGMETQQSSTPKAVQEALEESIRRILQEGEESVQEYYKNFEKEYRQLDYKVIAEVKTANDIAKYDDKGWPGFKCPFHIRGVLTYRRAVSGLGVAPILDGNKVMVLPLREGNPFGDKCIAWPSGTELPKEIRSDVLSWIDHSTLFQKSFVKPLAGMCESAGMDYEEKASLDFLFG
# Experiment: Counter-screen against bacteriophage T4 DNA polymerase
# Assay type: biochemical
# Settings: for % inhibition T4 10' 2.5 / % inhibition T4 10' 5 / % inhibition T4 10' 10 / % inhibition T4 10' 20 / % inhibition T4 10' 40 / % inhibition T4 10' 80: read at 10'; for % inhibition T4 10' 10 / % inhibition T4 70' 10 / % inhibition T4 130' 10 / % inhibition T4 40' 10 / % inhibition T4 90' 10 / % inhibition T4 180' 10: concentration 10; for % inhibition T4 70' 2.5 / % inhibition T4 70' 5 / % inhibition T4 70' 10 / % inhibition T4 70' 20 / % inhibition T4 70' 40 / % inhibition T4 70' 80: read at 70'; for % inhibition T4 130' 2.5 / % inhibition T4 130' 5 / % inhibition T4 130' 10 / % inhibition T4 130' 20 / % inhibition T4 130' 40 / % inhibition T4 130' 80: read at 130'; for % inhibition T4 40' 2.5 / % inhibition T4 40' 5 / % inhibition T4 40' 10 / % inhibition T4 40' 20 / % inhibition T4 40' 40 / % inhibition T4 40' 80: read at 40'; for % inhibition T4 90' 2.5 / % inhibition T4 90' 5 / % inhibition T4 90' 10 / % inhibition T4 90' 20 / % inhibition T4 90' 40 / % inhibition T4 90' 80: read at 90'; for % inhibition T4 180' 2.5 / % inhibition T4 180' 5 / % inhibition T4 180' 10 / % inhibition T4 180' 20 / % inhibition T4 180' 40 / % inhibition T4 180' 80: read at 180'
# In short: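 Purified T4 DNA polymerase, a B-family enzyme, served as the counter-screen enzyme. Compounds were tested in dose-response format and IC50 values were derived.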
smiles,measurement,setting,value
Cc1nc(C)c2c(n1)N(CC1CCCCC1)C(=O)CC2 [KU0218606],% inhibition T4 10' 2.5,"DRC-1, concentration 2.5",-4.605%
same,% inhibition T4 10' 5,"DRC-1, concentration 5",-3.989%
same,% inhibition T4 10' 10,DRC-1,-2.764%
same,% inhibition T4 10' 20,"DRC-1, concentration 20",-3.758%
same,% inhibition T4 10' 40,"DRC-1, concentration 40",-2.983%
same,% inhibition T4 10' 80,"DRC-1, concentration 80",-2.366%
same,% inhibition T4 70' 2.5,"DRC-1, concentration 2.5",-6.824%
same,% inhibition T4 70' 5,"DRC-1, concentration 5",-8.391%
same,% inhibition T4 70' 10,DRC-1,-4.959%
same,% inhibition T4 70' 20,"DRC-1, concentration 20",-8.03%
same,% inhibition T4 70' 40,"DRC-1, concentration 40",-3.675%
same,% inhibition T4 70' 80,"DRC-1, concentration 80",-5.307%
same,% inhibition T4 130' 2.5,"DRC-1, concentration 2.5",-8.748%
same,% inhibition T4 130' 5,"DRC-1, concentration 5",-10.3586%
same,% inhibition T4 130' 10,DRC-1,-7.013%
same,% inhibition T4 130' 20,"DRC-1, concentration 20",-9.978%
same,% inhibition T4 130' 40,"DRC-1, concentration 40",-5.652%
same,% inhibition T4 130' 80,"DRC-1, concentration 80",-8.474%
same,% inhibition T4 10' 2.5,"DRC-2, concentration 2.5",4%
same,% inhibition T4 10' 5,"DRC-2, concentration 5",4.39%
same,% inhibition T4 10' 10,DRC-2,6%
same,% inhibition T4 10' 20,"DRC-2, concentration 20",5.27%
same,% inhibition T4 10' 40,"DRC-2, concentration 40",12%
same,% inhibition T4 10' 80,"DRC-2, concentration 80",12%
same,% inhibition T4 40' 2.5,"DRC-2, concentration 2.5",4%
same,% inhibition T4 40' 5,"DRC-2, concentration 5",4.39%
same,% inhibition T4 40' 10,DRC-2,6%
same,% inhibition T4 40' 20,"DRC-2, concentration 20",5.27%
same,% inhibition T4 40' 40,"DRC-2, concentration 40",12%
same,% inhibition T4 40' 80,"DRC-2, concentration 80",12%
same,% inhibition T4 90' 2.5,"DRC-2, concentration 2.5",4%
same,% inhibition T4 90' 5,"DRC-2, concentration 5",5%
same,% inhibition T4 90' 10,DRC-2,7%
same,% inhibition T4 90' 20,"DRC-2, concentration 20",7%
same,% inhibition T4 90' 40,"DRC-2, concentration 40",11%
same,% inhibition T4 90' 80,"DRC-2, concentration 80",11%
same,% inhibition T4 180' 2.5,"DRC-2, concentration 2.5",-0.169%
same,% inhibition T4 180' 5,"DRC-2, concentration 5",0.674%
same,% inhibition T4 180' 10,DRC-2,3%
same,% inhibition T4 180' 20,"DRC-2, concentration 20",2%
same,% inhibition T4 180' 40,"DRC-2, concentration 40",8%
same,% inhibition T4 180' 80,"DRC-2, concentration 80",8%
"O=C(Cn1ccc2c(=O)[nH]ccc21)Nc1cc(F)ccc1F [Molecule 42, O=C(Cn1ccc2c1cc[nH]c2=O)Nc1cc(F)ccc1F]",% inhibition T4 10',"DRC-2, concentration 2.5",-1.82%
same,% inhibition T4 10',"DRC-2, concentration 5",-13%
same,% inhibition T4 10',"DRC-2, concentration 20",-4%
same,% inhibition T4 10',"DRC-2, concentration 80",-13%
same,% inhibition T4 40',"DRC-2, concentration 20",-4%
same,% inhibition T4 40',"DRC-2, concentration 80",-13%
same,% inhibition T4 180',"DRC-2, concentration 2.5",-1.82%
same,% inhibition T4 180',"DRC-2, concentration 80",-13%
CC(=O)Nc1cc(C(=O)c2cccs2)nn(-c2ccc(Cl)cc2)c1=O [KU0267905],% inhibition T4 10' 2.5,"DRC-1, concentration 2.5",-2.1822%
same,% inhibition T4 10' 5,"DRC-1, concentration 5",-1.511%
same,% inhibition T4 10' 10,DRC-1,8.968%
same,% inhibition T4 10' 20,"DRC-1, concentration 20",21.6077%
same,% inhibition T4 10' 40,"DRC-1, concentration 40",20.7445%
same,% inhibition T4 10' 80,"DRC-1, concentration 80",21.8297%
same,% inhibition T4 70' 2.5,"DRC-1, concentration 2.5",-0.6527%
same,% inhibition T4 70' 5,"DRC-1, concentration 5",-1.806%
same,% inhibition T4 70' 10,DRC-1,6.193%
same,% inhibition T4 70' 20,"DRC-1, concentration 20",12.7493%
same,% inhibition T4 70' 40,"DRC-1, concentration 40",13.4043%
same,% inhibition T4 70' 80,"DRC-1, concentration 80",12.69%
same,% inhibition T4 130' 2.5,"DRC-1, concentration 2.5",-1.3658%
same,% inhibition T4 130' 5,"DRC-1, concentration 5",-4.349%
same,% inhibition T4 130' 10,DRC-1,2.501%
same,% inhibition T4 130' 20,"DRC-1, concentration 20",8.205%
same,% inhibition T4 130' 40,"DRC-1, concentration 40",8.984%
same,% inhibition T4 130' 80,"DRC-1, concentration 80",8.594%
same,% inhibition T4 10' 2.5,"DRC-2, concentration 2.5",8%
same,% inhibition T4 10' 5,"DRC-2, concentration 5",8.43%
same,% inhibition T4 10' 10,DRC-2,8%
same,% inhibition T4 10' 20,"DRC-2, concentration 20",1.18%
same,% inhibition T4 10' 40,"DRC-2, concentration 40",7%
same,% inhibition T4 10' 80,"DRC-2, concentration 80",2.64%
same,% inhibition T4 40' 2.5,"DRC-2, concentration 2.5",7%
same,% inhibition T4 40' 5,"DRC-2, concentration 5",7.5%
same,% inhibition T4 40' 10,DRC-2,6.35%
same,% inhibition T4 40' 20,"DRC-2, concentration 20",0.171%
same,% inhibition T4 40' 40,"DRC-2, concentration 40",4%
same,% inhibition T4 40' 80,"DRC-2, concentration 80",0.303%
same,% inhibition T4 90' 2.5,"DRC-2, concentration 2.5",5%
same,% inhibition T4 90' 5,"DRC-2, concentration 5",5%
same,% inhibition T4 90' 10,DRC-2,4%
same,% inhibition T4 90' 20,"DRC-2, concentration 20",-2%
same,% inhibition T4 90' 40,"DRC-2, concentration 40",2.26%
same,% inhibition T4 90' 80,"DRC-2, concentration 80",-0.743%
same,% inhibition T4 180' 2.5,"DRC-2, concentration 2.5",0.767%
same,% inhibition T4 180' 5,"DRC-2, concentration 5",0.673%
same,% inhibition T4 180' 10,DRC-2,0.174%
same,% inhibition T4 180' 20,"DRC-2, concentration 20",-8%
same,% inhibition T4 180' 40,"DRC-2, concentration 40",-2.82%
same,% inhibition T4 180' 80,"DRC-2, concentration 80",-3.56%
"Cc1cccc2c(C(=O)NC(C)C)cc(N(C)C)nc12 [Molecule 47, CC(NC(=O)c1cc(nc2c1cccc2C)N(C)C)C]",% inhibition T4 10',"DRC-2, concentration 20",28%
same,% inhibition T4 10',"DRC-2, concentration 40",30%
same,% inhibition T4 10',"DRC-2, concentration 80",30%
same,% inhibition T4 90',"DRC-2, concentration 40",31%
same,% inhibition T4 90',"DRC-2, concentration 80",31%
same,% inhibition T4 180',"DRC-2, concentration 80",28%
"Cc1cc2[nH]c(C(=O)Nc3ccc(F)cc3)c(CN3CCOCC3)c2s1 [Molecule 60, Fc1ccc(cc1)NC(=O)c1[nH]c2c(c1CN1CCOCC1)sc(c2)C]",% inhibition T4 10' 2.5,"DRC-1, concentration 2.5",1.711%
same,% inhibition T4 10' 5,"DRC-1, concentration 5",9.215%
same,% inhibition T4 10' 10,DRC-1,21.452%
same,% inhibition T4 10' 20,"DRC-1, concentration 20",34.4714%
same,% inhibition T4 10' 40,"DRC-1, concentration 40",38.1099%
same,% inhibition T4 10' 80,"DRC-1, concentration 80",40.6852%
same,% inhibition T4 70' 2.5,"DRC-1, concentration 2.5",0.0854%
same,% inhibition T4 70' 5,"DRC-1, concentration 5",3.336%
same,% inhibition T4 70' 10,DRC-1,13.8719%
same,% inhibition T4 70' 20,"DRC-1, concentration 20",20.2889%
same,% inhibition T4 70' 40,"DRC-1, concentration 40",27.4388%
same,% inhibition T4 70' 80,"DRC-1, concentration 80",27.0179%
same,% inhibition T4 130' 2.5,"DRC-1, concentration 2.5",-1.799%
same,% inhibition T4 130' 5,"DRC-1, concentration 5",0.5371%
same,% inhibition T4 130' 10,DRC-1,9.245%
same,% inhibition T4 130' 20,"DRC-1, concentration 20",15.4607%
same,% inhibition T4 130' 40,"DRC-1, concentration 40",21.1797%
same,% inhibition T4 130' 80,"DRC-1, concentration 80",22.3923%
same,% inhibition T4 10' 2.5,"DRC-2, concentration 2.5",5.28%
same,% inhibition T4 10' 5,"DRC-2, concentration 5",2.77%
same,% inhibition T4 10' 10,DRC-2,13%
same,% inhibition T4 10' 20,"DRC-2, concentration 20",21%
same,% inhibition T4 10' 40,"DRC-2, concentration 40",25%
same,% inhibition T4 10' 80,"DRC-2, concentration 80",25%
same,% inhibition T4 40' 2.5,"DRC-2, concentration 2.5",3.64%
same,% inhibition T4 40' 5,"DRC-2, concentration 5",2.11%
same,% inhibition T4 40' 10,DRC-2,12%
same,% inhibition T4 40' 20,"DRC-2, concentration 20",21%
same,% inhibition T4 40' 40,"DRC-2, concentration 40",26%
same,% inhibition T4 40' 80,"DRC-2, concentration 80",27%
same,% inhibition T4 90' 2.5,"DRC-2, concentration 2.5",4%
same,% inhibition T4 90' 5,"DRC-2, concentration 5",2.34%
same,% inhibition T4 90' 10,DRC-2,12%
same,% inhibition T4 90' 20,"DRC-2, concentration 20",19%
same,% inhibition T4 90' 40,"DRC-2, concentration 40",24%
same,% inhibition T4 90' 80,"DRC-2, concentration 80",25%
same,% inhibition T4 180' 2.5,"DRC-2, concentration 2.5",-1.07%
same,% inhibition T4 180' 5,"DRC-2, concentration 5",-2.8%
same,% inhibition T4 180' 10,DRC-2,6%
same,% inhibition T4 180' 20,"DRC-2, concentration 20",13%
same,% inhibition T4 180' 40,"DRC-2, concentration 40",20%
same,% inhibition T4 180' 80,"DRC-2, concentration 80",23%
